Laboratory results reported in PMC9865645, “The Impact of N^ε-Acryloyllysine Piperazides on the Conformational Dynamics of Transglutaminase 2” (International Journal of Molecular Sciences, 2023).

Assays:
[1] = biological target: T1, hTGase 2 (Homo sapiens, UniProt P21980); assay: switchSENSE static mode (fluorescence proximity sensing): binding kinetics of GTPγS to hTGase 2-dsDNA lever; conditions: for koff / kon: 20 nM GTPγS, best-fit ± standard error; for Kd: quotient koff/kon
T1 construct: purchased Zedira (Darmstadt, Germany) T022, lot 0716a
T1 sequence (P21980 1-687): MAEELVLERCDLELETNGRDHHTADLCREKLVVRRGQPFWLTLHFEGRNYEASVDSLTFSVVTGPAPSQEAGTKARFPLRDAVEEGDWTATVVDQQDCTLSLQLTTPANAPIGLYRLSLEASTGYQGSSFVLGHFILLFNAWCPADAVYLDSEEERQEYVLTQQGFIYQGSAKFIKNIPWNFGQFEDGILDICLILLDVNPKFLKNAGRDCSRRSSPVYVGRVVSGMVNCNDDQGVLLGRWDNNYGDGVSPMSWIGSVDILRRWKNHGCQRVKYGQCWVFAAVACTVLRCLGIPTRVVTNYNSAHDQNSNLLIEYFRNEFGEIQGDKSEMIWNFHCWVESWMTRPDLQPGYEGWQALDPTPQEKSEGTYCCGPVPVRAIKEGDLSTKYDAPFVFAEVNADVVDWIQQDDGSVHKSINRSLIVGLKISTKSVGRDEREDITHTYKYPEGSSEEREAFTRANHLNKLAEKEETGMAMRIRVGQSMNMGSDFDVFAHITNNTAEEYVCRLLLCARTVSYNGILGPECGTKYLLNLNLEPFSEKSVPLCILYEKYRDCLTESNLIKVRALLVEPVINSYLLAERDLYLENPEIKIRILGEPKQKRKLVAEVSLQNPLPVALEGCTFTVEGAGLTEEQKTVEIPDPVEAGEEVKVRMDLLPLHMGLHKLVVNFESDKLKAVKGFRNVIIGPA
Protocol: The switchSENSE® experiments were performed with a DRX^2 (Dynamic Biosensors, excitation 600–630 nm, emission 650–686 nm). All experiments were performed in TE40 (10 mM TRIS pH 7.4, 40 mM NaCl, 50 µM EDTA, 50 µM EGTA, 100 µM TCEP, 0.05% Tween 20) when not explicitly stated otherwise. For the dynamic mode measurements, the standard operation procedures as described in [56] were applied. For measurements of the kinetics of the interaction of both GTPγS and CaCl2 with hTGase 2, firstly, the ssDNA-hTGase 2 conjugate was hybridized for 360 s to the ssDNA capture strand on the gold microelectrodes of the chip. With 500 nM, the conjugate concentration was chosen relatively high to achieve full coverage of the electrodes. Secondly, 1000 µL of 20 nM GTPγS in TE40 were flushed over the electrodes, followed by about 4000 µL of TE40 (2000 µL/min), to obtain access to the association as well as the dissociation, respectively. Changes in the fluorescence intensity during the GTPγS interaction were recorded using fluorescence proximity sensing (static mode).
The formation of the protein–ligand complex of GTPγS and hTGase 2 can be represented by the reaction equation expressed by Equation (1). (1) P+L kon⇌koff PL
The concentration of the protein–ligand complex, [PL] , at a certain time of association ta is [PL]a . At the beginning of the association, there is no surface-bound complex present, i.e., [PL]=0 , and the ligand concentration is assumed to be constant at [L]=cGTPγS . This neglects diffusion limitation by assuming continuous replacement of the medium at the electrode surface in the microfluidic channel. Thus, the time-dependent equilibrium fraction reached at the association time ta can be expressed by Equation (2). For derivation, see Equations (S1) to (S5) in Supplementary Materials. (2) [PL]a/[PL]∞=1−e^−ka·ta
In Equation (2), [PL]∞ is the equilibrium concentration of the protein–ligand complex, and ka is the apparent rate constant in the association experiment, defined by Equation (3). (3) ka=cGTPγS kon+koff
During the dissociation, the concentration of the free ligand is assumed to be constantly zero. Consequently, Equation (6) should be valid (for derivation, see Equations (S7) to (S10) in Supplementary Materials). (6) [PL]d/[PL]d,0=e^−koff·td
Combining Equations (6) and (7), the time-dependent fluorescence intensity during the dissociation is given by Equation (8). (8) Fd=(Fd,s−Fd,e)(e^−koff·td)+Fd,e
Equations (5) and (8) were fitted to the measured fluorescence intensities of the association and dissociation experiments with 20 nM GTPγS, respectively. This was performed by a damped Gauss–Newton algorithm (see Equations (S12) and (S13) in Supplementary Materials) to determine the best-fit parameters, and consequently, kon and koff. The quotient koff/kon is the dissociation constant, Kd. Additionally, the standard errors of these parameters were estimated (Equations (S14) to (S21) in Supplementary Materials).

[2] = biological target: T2, commercial His6-hTGase 2 (Homo sapiens, UniProt P21980); assay: fluorescence anisotropy (FA)-based transamidase activity assay, commercial His6-hTGase 2; assay type: biochemical
T2 construct: purchased Zedira (Darmstadt, Germany) T022, lot 0716a
T2 sequence (P21980 1-687): T1 sequence (P21980 1-687)
Protocol: For the analysis of inhibitor 1 on self-produced hTGase 2, 2 µg/mL of the enzyme was used to guarantee comparability with the value reported by Wodtke et al., whereas all other experiments were performed with 5 µg/mL of either commercial or self-produced hTGase 2 (corresponding to 64.1 and 61.6 nM, respectively, when assuming 100% active protein). Parallel and perpendicular fluorescence intensities were measured over 1190 s in 35 s intervals (1) or over 1776 s in 48 s intervals (2, 3) and used to calculate the FA. Data of FA for the first 875 s (1) or 384 s (2, 3) were analyzed by linear regression, with slopes corresponding to enzymatic rates. Rates in the presence of inhibitor were normalized by dividing them by the respective rate in the absence of inhibitor, and normalized rates were analyzed according to Equation (S29) in Supplementary Materials to calculate values of IC50. Data analysis was performed with Microsoft Excel (Microsoft Office Professional Plus 2016, Microsoft® Corporation, USA) and GraphPad Prism version 5.03 or version 6.07 for Windows (GraphPad Software, La Jolla, CA, USA).

[3] = His-tag-directed labeling of hTGase 2
[4] = non-directed labeling of hTGase 2

koff [1, 3]	kon [1, 3]	Kd [1, 3] [nM]	koff [1, 4]	kon [1, 4]	Kd [1, 4] [nM]	IC50 ([2]; 5 min pre-incubation of enzyme and inhibitor, mean (SEM) of three experiments) [nM]	IC50 ([2]; 30 min pre-incubation, hTGase 2 (Zedira) 64.1 nM, mean (SEM)) [nM]	ratio of the IC50 and the molar enzyme concentration ([2]; FA assay, 30 min pre-incubation, range over in-house and commercial hTGase 2)	IC50 ([2]; FA assay, 30 min pre-incubation, range over in-house and commercial hTGase 2 (62–64 nM)) [nM]	SMILES
1.9 ± 0.5 10^−2 s^−1	16 ± 2 10^6 M^−1 s^−1	1.2 ± 0.4	1.6 ± 0.6 10^−2 s^−1	17 ± 4 10^6 M^−1 s^−1	1 ± 0.4					Nc1nc2c(ncn2[C@@H]2O[C@H](COP(=O)(O)OP(=O)(O)OP(O)(O)=S)[C@@H](O)[C@H]2O)c(=O)[nH]1 [GTPγS]
						154	47.4	0.57–0.74	35 to 47	C=CC(=O)NCCCC[C@H](NC(=O)Cc1ccccc1I)C(=O)N1CCN(c2ccc([N+](=O)[O-])nc2)CC1 [Compound 2, N^α-(2-Iodophenylacetyl)-N^ε-acryloyl-L-lysin-4-(2-nitropyridin-5-yl)piperazide]
